In experiment [1] the target is T1, binding of IgE to mast cells (cellular receptor) (Rattus norvegicus, UniProt P12371).
T1 construct: endogenous in cells; host or cells: mixed peritoneal cells (containing mast cells)
T1 sequence (P12371 24-245): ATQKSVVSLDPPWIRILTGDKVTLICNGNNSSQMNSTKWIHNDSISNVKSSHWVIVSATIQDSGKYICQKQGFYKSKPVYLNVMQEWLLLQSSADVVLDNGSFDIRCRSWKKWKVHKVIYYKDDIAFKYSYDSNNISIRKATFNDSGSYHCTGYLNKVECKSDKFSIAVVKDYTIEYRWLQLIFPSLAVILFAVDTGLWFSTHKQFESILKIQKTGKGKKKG
T1 sequence (P13386 1-243 partner): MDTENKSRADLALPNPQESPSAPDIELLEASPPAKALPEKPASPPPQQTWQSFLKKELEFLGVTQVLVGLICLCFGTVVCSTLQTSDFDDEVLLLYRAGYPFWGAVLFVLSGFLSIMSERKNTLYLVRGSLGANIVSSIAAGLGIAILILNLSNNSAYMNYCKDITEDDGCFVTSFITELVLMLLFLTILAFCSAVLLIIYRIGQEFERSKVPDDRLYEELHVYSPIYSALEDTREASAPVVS
T1 sequence (P20411 19-86 partner): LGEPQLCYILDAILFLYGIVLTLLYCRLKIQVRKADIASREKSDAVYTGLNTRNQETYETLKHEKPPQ
The experiment is described as follows: Binding of IgE to mast cells (125I-labelled rat IgE, mixed peritoneal cells). Here is the method: The test used to determine this activity was the method of S. M. Coutts et al. (Journal of Pharm. Sci., 68:353 (1979)). Briefly described, the method is as follows:
IgE, isolated from the ascitic fluid of a transplantable rat IgE immunocytoma, was labeled with iodine-125 under mild conditions employing the Bolton-Hunter reagent. The antibody was incubated with mixed peritoneal cells at 37° C., and the cell-bound IgE was separated from unbound label by sedimentation through an 8% sucrose-polymer solution in microsediment tubes. Conditions for the interaction of 3nM IgE with 3×10^5 mast cells in 150 μl were: incubation time, 2 hrs; pH, 6.5-7.0; and ionic strength, equivalent to 150 mM NaCl. Mixed peritoneal cells bind IgE with an affinity equal to that of purified mast cells.

In experiment [2] the test system is rat peritoneal mast cells. As to the kind of experiment: Inhibition of histamine release from rat mast cells. The class given is cell-based. Particulars: for IC50: Rattus norvegicus, Mast cell, read-out: I50 of antigen-induced secretion of histamine. The protocol:
The compound of the present invention was also tested for inhibition of histamine release from rat mast cells by the method of Khandwala et al., Int. Archs Allergy appl. Immun. 69:159-168 (1982). Rat peritoneal mast cells contain receptors for IgE antibodies as well as granules which contain preformed mediators of anaphylaxis. Immunologically stimulated secretion of histamine from these cells has long been used as a model for testing antiallergic drugs. The standard asthma prophylactic drug disodium cromoglycate is a potent inhibitor in this model. A brief summary of the method is as follows:
Freshly harvested rat peritoneal mast cells were passively sensitized in vitro with rat anti-ovalbumin serum. Spontaneous histamine release or SR (in the absence of antigen) and anaphylactically-induced histamine release or AIR (in the presence of antigen) were measured after 15 minutes of incubation. Both the histamine released into the incubation medium and the residual histamine extracted from rat mast cells were measured fluorometrically.

The test system of experiment [3] is human basophils. The experiment is described as follows: Inhibition of histamine release from human basophils. Type of experiment: cell-based. Particulars: 5 minutes preincubation before anti-human IgE challenge; read-out: calculated concentration at which 50% of anti-IgE-induced histamine release was inhibited. The protocol: 1H-benz(f)azepine-2,5-dione was also tested by a method which measures inhibition of histamine release from human basophils. The basophil is a circulating granulocyte that contains preformed mediators of anaphylaxis. These mediators are secreted after immunological stimulation of the IgE-Fc receptor system. The human basophil has thus been employed as a model cell system for asthma and allergy. The effect of the compound upon anti-IgE-medicated secretion of histamine from human basophils prepared from venous blood was carried out according to Siraganian, R. and Brodsky, M. J., Automated Histamine Analysis for in vitro testing, J. Allergy Clin. Immunol. 57:525-540 (1976). The summary of the method follows:
A fraction containing basophils was isolated by allowing freshly drawn human blood to sediment in the presence of dextran, saline and ethylenediamine tetraacetate. […] Both the histamine secreted after the challenge and that remaining in the cells were determined by an automated fluorometric assay. The influence of 1H-benz(f)azepine-2,5-dione on anti-IgE-induced release of histamine (AIR) was assessed by preincubation of the cells with the test compound for 5 minutes before immunological challenge. […] The results were expressed as the percent inhibition of AIR or as I50 value.

For experiment [4], the system named is guinea pig lung slices. As to the kind of experiment: Inhibition of histamine release from guinea pig lung slices. Type of experiment: cell-based. Particulars: Cavia porcellus; passively sensitized lung slices, 5 minutes preincubation; read-out: concentration at which 50% of antigen-induced histamine release was inhibited (I50). The text has this:
1H-benz(f)azepine-2,5-dione was also found to inhibit histamine-release from guinea pig lung slices over a wide concentration range. Immunologically mediated secretion of histamine from guinea pig lung slices is mediated through the IgG1 class of antibodies, as opposed to the IgE-class of antibodies which control secretion from rat mast cells. The affect of the compound of the present invention on antigen-induced release of histamine from passively sensitized guinea pig lung slices was determined according to the procedure of Khandwala et al., Int. Archs. Allergy Appl. Immunol. 59:34-44(1979). A brief description of the method follows:
Guinea pig lung slices were passively sensitized in vitro with guinea pig anti-ovalbumin serum. […] Both the histamine released into the incubation media and the residual histamine extracted from the lung slices were measured fluorometrically. Both spontaneous and antigen-induced histamine releases were expressed as % of total extractable histamine in the lung slices. Net antigen-induced histamine release (AIR) was obtained by subtracting the spontaneous release from that in the presence of the antigen. The effect of the test compound on both SR and AIR was determined following 5 minutes preincubation of sensitized lung slices with the test compound. The concentration of the test compound required for 50% inhibition of AIR (I50) was determined.

The mark [5] stands for this setting: 0 h, compound added simultaneously (at 0 minutes) with antigen.
Where [6] appears, read: cells and drug preincubated for 5 minutes before adding antigen.

Read-outs that look alike come from different tables or passages of the source.

Consider two compounds from patent US4477446A, “1-Benzazepines and their pharmaceutical uses” (USV Pharmaceutical Corporation, priority 1983, dated 1984).

Regarding `O=c1ccc(=O)c2ccccc2[nH]1` [1H-benz(f)azepine-2,5-dione, 1H-Benz(f)azepine-2,5-dione], the IC50 in experiment [1] (3 nM IgE, 3×10^5 mast cells, 2 hrs, 37° C., read-out: concentration at which 50% inhibition of IgE binding was observed (I50)) is 12 µM; in experiment [2] (setting [5]), 1.8 µM; in experiment [2] (setting [6]) it was 5 µM; in experiment [3], 2 µM; in experiment [4], 20 µM. Besides, in experiment [1] (30 μM, average of two experiments), 30 µM produced 70% inhibition. The “apparent affinity constant KA of IgE for its cellular receptor” value in experiment [1] (in presence of 30 μM test compound, control KA 4.4×10^8 M^-1, Scatchard analysis) is 9.4e+07 M⁻¹.
With `O=C(O)c1cc(=O)c2c(OCC(O)COc3cccc4oc(C(=O)O)cc(=O)c34)cccc2o1` [disodium cromoglycate, reference compound], the IC50 in experiment [2] (setting [5]) came to 3 µM. In experiment [2] (setting [6]), the “I50 of antigen-induced secretion of histamine” value is “inactive”.
